Reference: ChEMBL document CHEMBL1201862, “PubChem BioAssay data set” (2004)
Values belong to the molecule of their own block, whether it stands above or below them. Activity calls are given as the source filed them.

Columns and labels:
[1] = molecular target: Photoreceptor-specific nuclear receptor (Homo sapiens, UniProt Q9Y5X4); format: functional;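 further: potency for compounds that break the NR2E3 corepressor complex and count as activators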
[2] = molecular target: Peroxisome proliferator-activated receptor gamma/Nuclear receptor corepressor 2 (Homo sapiens, UniProt P37231+Q9Y618); format: functional
[3] = molecular target: T1, Heat shock factor protein 1 (Mus musculus, UniProt P38532); assay: HSF1 potentiators in luciferase reporter cells, confirmation, cell-based, NIH3T3, luminescence, dose retest (AID 435004); format: functional;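 further: stress induced by proteasome inhibitor MG132 added 30 min after compound; luciferase reporter driven by HSF1 response element in NIH3T3 cells; actives raise luminescence as potentiators of the MG132 stress response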
T1 sequence (P38532 whole entry): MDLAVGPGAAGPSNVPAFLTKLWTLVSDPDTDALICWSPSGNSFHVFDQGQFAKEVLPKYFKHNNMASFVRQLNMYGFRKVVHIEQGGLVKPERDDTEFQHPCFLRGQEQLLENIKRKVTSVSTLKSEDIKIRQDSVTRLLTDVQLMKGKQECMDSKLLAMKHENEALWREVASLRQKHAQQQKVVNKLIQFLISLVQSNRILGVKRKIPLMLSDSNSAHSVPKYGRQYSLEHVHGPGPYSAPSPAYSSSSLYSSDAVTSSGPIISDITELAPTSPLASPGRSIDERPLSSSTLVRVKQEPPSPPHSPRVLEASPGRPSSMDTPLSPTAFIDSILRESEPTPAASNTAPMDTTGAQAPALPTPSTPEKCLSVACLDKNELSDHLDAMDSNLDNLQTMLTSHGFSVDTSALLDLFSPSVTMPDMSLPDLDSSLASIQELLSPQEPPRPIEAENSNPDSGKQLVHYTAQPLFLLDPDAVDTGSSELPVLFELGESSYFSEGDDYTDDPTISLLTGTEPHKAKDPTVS

Cytochrome P450 2C9 = Cytochrome P450 2C9 (Homo sapiens, UniProt P11712); settings: Potency
[4] = inhibitors of intracellular T. cruzi replication, confirmation, NIH3T3 host cells, beta-gal luminescence (AID 2044); format: functional, cell-based;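 further: intracellular parasites grown in NIH/3T3 mouse fibroblasts as host cells; luminescent beta-galactosidase reporter signal from transgenic T. cruzi replicating inside host cells; inhibitors lower the luminescence signal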
[5] = cytotoxicity toward NIH3T3 fibroblasts, dose response, counter-screen, cell-based, ATP luminescence, mouse fibroblasts (AID 2010); format: functional;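 further: cells exposed to compound for about 90 hours before reading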
[6] = molecular target: Neurotensin receptor type 1 (Homo sapiens, UniProt P30989); format: functional;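 further: Image-based confirmatory dose-response assay measuring agonist activity at NTR1; NTR1-expressing U2OS osteosarcoma cells imaged for beta-arrestin GFP spot formation; agonist potency where compounds increase beta-arrestin recruitment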
HeLa = assay: HeLa cell cytotoxicity, dose response, cytotoxicity control, 24 h, cherry-picked samples (AID 504726); format: functional, cell-based; settings: Homo sapiens;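 further: potency for cytotoxicity as loss of luminescence signal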
Mucolipin-3 = Mucolipin-3 (Homo sapiens, UniProt Q8TDD5); assay: Dose response cell-based high-throughput screening assay for agonists of the transient receptor potential channel ML3 (TRPML3). [Related pubchem assays: 1526, 1424, 1448 ]; format: functional
Ion channel NompC [7] = molecular target: T2, Ion channel NompC (Danio rerio, UniProt Q7T1G6); assay: Fluorescence counterscreen assay for TRPML3 agonists: dose response cell-based high-throughput screening assay to identify agonists of the transient receptor potential channel N1 (TRPN1). [Related pubchem assays: 1526, 1424, 1448 ]; format: functional
Ion channel NompC [8] = molecular target: T2, Ion channel NompC; assay: TRPML3 and TRPML2 channel agonists, cell-based, patch clamp, Fura-2 profiling panel, panel member TRPN1 Dose Response (AID 2116)
[9] = molecular target: T3, Corticotropin-releasing factor receptor 2/Corticotropin-releasing factor-binding protein (Homo sapiens, UniProt P24387+Q13324); assay: activators of CRF receptor 2 with binding protein – uHTS hits, confirmation (AID 602473); format: functional; settings: read-out: EC50_Mean
T3 sequence (Q13324 whole entry): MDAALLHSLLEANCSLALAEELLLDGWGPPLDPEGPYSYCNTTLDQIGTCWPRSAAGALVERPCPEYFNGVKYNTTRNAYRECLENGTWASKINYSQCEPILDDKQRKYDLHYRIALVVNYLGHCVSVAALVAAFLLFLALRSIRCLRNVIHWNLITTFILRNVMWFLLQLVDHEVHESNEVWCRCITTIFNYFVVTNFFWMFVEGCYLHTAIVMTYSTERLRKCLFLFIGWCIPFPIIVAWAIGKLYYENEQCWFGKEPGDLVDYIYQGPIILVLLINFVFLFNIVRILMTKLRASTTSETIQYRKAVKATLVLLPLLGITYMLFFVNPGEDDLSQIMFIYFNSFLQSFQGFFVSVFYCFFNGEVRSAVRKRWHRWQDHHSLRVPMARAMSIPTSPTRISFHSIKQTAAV
T3 sequence (P24387 whole entry): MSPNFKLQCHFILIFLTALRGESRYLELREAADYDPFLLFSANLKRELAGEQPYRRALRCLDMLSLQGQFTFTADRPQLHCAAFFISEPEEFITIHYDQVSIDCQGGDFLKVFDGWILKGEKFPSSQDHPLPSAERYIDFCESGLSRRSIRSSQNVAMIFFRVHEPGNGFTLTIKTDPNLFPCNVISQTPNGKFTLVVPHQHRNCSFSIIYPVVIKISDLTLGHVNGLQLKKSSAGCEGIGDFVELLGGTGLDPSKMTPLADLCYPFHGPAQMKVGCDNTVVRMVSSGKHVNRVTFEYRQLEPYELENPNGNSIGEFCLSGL

[10] = molecular target: Mothers against decapentaplegic homolog 3 (Homo sapiens, UniProt P84022); assay: Smad3 binding inhibitors, lysate ELISA, dose response, cell lysate, secondary confirmation, chemiluminescent ELISA, HEK293 lysate (AID 1058); format: functional
Chain of Mothers against decapentaplegic homolog 3 (P84022 whole entry): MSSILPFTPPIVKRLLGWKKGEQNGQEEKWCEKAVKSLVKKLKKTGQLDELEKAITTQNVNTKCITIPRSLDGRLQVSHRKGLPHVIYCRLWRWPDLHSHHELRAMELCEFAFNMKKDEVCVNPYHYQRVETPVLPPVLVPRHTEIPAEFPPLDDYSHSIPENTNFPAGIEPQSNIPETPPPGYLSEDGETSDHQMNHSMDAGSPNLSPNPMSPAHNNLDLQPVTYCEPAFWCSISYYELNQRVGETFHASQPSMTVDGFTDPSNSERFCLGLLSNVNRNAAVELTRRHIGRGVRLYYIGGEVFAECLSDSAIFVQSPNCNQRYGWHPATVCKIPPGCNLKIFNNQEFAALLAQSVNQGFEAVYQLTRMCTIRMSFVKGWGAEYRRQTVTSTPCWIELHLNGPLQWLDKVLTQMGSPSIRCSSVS

T2 sequence (Q7T1G6 whole entry): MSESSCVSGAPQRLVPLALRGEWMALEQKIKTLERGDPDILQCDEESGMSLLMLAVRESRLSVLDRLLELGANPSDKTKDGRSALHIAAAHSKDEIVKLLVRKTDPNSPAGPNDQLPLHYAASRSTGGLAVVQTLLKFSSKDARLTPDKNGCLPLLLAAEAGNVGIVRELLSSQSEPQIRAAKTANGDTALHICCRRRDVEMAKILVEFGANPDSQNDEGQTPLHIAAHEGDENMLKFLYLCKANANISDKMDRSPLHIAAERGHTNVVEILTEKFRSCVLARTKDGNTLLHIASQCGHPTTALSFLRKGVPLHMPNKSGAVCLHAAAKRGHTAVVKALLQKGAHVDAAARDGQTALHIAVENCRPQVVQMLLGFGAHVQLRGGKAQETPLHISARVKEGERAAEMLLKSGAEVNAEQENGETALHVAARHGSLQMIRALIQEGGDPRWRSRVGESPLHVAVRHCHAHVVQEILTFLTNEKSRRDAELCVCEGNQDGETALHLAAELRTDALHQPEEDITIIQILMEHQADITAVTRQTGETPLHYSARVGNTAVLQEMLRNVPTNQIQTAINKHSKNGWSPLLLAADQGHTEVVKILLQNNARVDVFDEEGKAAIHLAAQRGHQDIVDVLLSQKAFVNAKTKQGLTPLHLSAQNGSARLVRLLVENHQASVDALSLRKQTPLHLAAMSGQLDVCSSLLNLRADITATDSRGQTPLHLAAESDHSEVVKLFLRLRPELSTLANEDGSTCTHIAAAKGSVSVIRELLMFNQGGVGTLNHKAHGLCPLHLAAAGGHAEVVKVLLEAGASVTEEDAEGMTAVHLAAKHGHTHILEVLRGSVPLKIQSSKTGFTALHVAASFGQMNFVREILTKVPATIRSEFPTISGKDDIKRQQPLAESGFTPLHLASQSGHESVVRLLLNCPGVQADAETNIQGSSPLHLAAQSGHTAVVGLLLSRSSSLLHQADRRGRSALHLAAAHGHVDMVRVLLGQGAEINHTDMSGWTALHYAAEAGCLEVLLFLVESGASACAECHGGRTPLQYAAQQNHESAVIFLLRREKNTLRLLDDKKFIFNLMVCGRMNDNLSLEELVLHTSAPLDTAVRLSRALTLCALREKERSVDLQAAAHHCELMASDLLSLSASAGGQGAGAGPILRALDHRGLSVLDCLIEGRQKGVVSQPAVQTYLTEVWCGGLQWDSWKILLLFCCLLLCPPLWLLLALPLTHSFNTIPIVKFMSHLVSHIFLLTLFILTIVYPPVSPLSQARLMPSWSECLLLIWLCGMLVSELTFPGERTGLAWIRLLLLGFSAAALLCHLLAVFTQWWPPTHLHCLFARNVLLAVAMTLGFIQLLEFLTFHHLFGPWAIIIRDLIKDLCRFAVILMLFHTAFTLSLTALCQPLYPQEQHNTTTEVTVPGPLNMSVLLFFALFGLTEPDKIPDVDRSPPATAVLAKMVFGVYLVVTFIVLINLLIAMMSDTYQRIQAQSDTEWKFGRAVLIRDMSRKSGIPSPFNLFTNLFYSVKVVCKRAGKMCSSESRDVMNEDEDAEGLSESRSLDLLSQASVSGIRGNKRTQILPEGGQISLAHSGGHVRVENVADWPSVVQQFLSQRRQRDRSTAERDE
Chain of Neurotensin receptor type 1 (P30989 whole entry): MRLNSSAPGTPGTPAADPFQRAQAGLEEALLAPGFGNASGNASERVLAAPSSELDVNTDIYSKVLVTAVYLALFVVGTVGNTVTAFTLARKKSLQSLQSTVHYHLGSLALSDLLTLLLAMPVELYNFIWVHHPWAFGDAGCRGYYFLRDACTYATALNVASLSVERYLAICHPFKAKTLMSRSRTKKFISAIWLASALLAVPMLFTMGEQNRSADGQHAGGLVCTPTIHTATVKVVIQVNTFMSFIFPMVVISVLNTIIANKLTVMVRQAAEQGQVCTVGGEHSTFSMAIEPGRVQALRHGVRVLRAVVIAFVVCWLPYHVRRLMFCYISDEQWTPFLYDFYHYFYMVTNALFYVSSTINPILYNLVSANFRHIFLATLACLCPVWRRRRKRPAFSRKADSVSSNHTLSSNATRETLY
Chain of Cytochrome P450 2C9 (P11712 whole entry): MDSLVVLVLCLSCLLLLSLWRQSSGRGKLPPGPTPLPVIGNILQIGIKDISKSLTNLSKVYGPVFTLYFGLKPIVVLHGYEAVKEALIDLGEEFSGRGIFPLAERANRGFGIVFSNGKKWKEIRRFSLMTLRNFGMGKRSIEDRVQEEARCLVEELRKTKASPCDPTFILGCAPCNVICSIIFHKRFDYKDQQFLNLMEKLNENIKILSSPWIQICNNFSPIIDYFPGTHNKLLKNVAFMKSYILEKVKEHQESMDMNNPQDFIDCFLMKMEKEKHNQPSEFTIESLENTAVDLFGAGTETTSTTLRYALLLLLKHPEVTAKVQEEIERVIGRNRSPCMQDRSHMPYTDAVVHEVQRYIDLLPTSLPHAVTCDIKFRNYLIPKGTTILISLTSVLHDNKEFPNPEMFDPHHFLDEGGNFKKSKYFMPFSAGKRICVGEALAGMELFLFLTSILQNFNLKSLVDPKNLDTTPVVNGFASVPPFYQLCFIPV
Chain of Mucolipin-3 (Q8TDD5 whole entry): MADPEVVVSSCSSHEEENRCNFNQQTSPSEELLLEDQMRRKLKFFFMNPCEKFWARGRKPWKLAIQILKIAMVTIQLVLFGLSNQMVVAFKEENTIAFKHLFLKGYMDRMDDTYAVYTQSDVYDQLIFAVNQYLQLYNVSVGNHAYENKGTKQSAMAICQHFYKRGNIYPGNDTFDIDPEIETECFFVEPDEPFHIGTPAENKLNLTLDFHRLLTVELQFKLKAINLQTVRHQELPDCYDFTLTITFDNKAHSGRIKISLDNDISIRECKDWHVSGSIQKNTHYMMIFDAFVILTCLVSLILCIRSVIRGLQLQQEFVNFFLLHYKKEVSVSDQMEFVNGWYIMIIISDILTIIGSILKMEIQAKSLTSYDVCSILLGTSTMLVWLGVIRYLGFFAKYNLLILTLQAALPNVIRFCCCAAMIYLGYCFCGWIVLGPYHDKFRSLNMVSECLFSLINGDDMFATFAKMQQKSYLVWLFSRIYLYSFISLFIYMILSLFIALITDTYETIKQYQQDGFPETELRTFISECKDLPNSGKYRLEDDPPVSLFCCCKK
Chain of Photoreceptor-specific nuclear receptor (Q9Y5X4 whole entry): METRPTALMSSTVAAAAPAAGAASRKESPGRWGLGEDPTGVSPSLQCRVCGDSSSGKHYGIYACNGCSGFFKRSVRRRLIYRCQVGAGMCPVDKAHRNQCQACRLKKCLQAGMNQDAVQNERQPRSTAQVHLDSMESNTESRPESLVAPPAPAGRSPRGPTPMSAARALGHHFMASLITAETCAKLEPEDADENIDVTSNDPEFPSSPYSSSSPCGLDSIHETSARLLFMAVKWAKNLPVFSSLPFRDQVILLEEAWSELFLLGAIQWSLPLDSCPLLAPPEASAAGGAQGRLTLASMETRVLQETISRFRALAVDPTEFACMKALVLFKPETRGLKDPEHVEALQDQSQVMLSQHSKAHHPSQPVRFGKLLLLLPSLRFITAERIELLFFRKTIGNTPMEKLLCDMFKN

IC50 [1]: > 39.8 µM (not active)
IC50 [2]: 4.1 µM (active)
EC50 [3]: > 260 µM (inactive)
Compound: COc1cc(C2C(C(=O)c3cc4ccccc4o3)=C(O)C(=O)N2c2cc(C)on2)cc(OC)c1OC (stereo not drawn)

AC50 (Cytochrome P450 2C9): 5.01 µM (inconclusive)
Compound: COC(=O)C12CC3(CCC4C5C(C(OCc6ccccc6)C41)C52)OCCO3 (stereo not drawn)

Compound: O=C(Nc1ccc([N+](=O)[O-])cc1)Nc1ccc(N2CCOCC2)c2nonc12
EC50 [4]: 3.77 µM (active)
EC50 [5]: > 30 µM (not active)
EC50 [6]: > 40 µM (inactive)

Compound: O=c1c2ccccc2nc(/C=C\c2ccccc2[N+](=O)[O-])n1-c1ccccc1O
AC50 (HeLa): 94.2 µM (active)

EC50 (Mucolipin-3): 0.823 µM (active)
EC50 (Ion channel NompC [7]): > 29.9 µM (not active)
EC50 (Ion channel NompC [8]): 14 µM (inactive)
EC50 [9]: 13.7 µM (active)
Compound: O=S(=O)(NC1CCCCC1N1CCOCC1)c1ccc(Cl)cc1 (stereo not drawn)

IC50 [10]: > 40 µM (not active)
Compound: COc1cccc(C(c2cc3c(cc2O)OCO3)N2CCN(C(c3cc4c(cc3O)OCO4)c3cccc(OC)c3O)CC2)c1O (stereo not drawn)
